Measured values taken from patent US6288125A, “Treatment of hiatial hernia” (Knoll Pharmaceuticals Company, priority 2000, dated 2001).

Tested on: reuptake of all three monoamines
Experiment: monoamine reuptake inhibition profile (in words, with reference to Table 1)
Assay type: biochemical, rat
Settings: sibutramine through its pharmacologically active metabolites 1 and 2

CC(C)CC(N(C)C)C1(c2ccc(Cl)cc2)CCC1 (stereo not shown) [sibutramine, N,N-dimethyl-1-[1-(4-chlorophenyl)cyclobutyl]-3-methylbutylamine]
monoamine reuptake inhibition / selectivity in words: inhibits the reuptake of all three monoamines
